# Test results reported in publication PMC10620772, “Design, synthesis, and biological evaluation of new pyrimidine-5-carbonitrile derivatives as novel anti-cancer, dual EGFR^WT/COX-2 inhibitors with docking studies” (RSC Advances, 2023).
# Assays:
# [1] = system: CNS cancer subpanel; experiment: NCI60 five-dose, subpanel IV; format: cell-based, human; settings: for GI50: Homo sapiens, read-out: MG-MID (GI50); for GI50 / MG-MID (TGI): subpanel IV; for Selectivity index (GI50) / Selectivity index (TGI): full panel MG-MID / subpanel IV
# Text: (§1) (2) The molar concentration of the compound responsible for total growth inhibition, also known as total growth inhibition (TGI).
# (§2) Regarding subpanel selectivity toward certain cancer type, the method of determining a compound's selectivity index is to divide the full panel MG-MID (μM) value by each single subpanel. Values above six indicate high selectivity against the subpanel; moderate selectivity is denoted by values between three and six. Conversely, compounds are termed nonselective if their selectivity is less than three.[30,37]
# [2] = system: melanoma subpanel; experiment: NCI60 five-dose, subpanel V; format: cell-based, human; settings: for GI50: Homo sapiens, read-out: MG-MID (GI50); for GI50 / MG-MID (TGI): subpanel V; for Selectivity index (GI50) / Selectivity index (TGI): full panel MG-MID / subpanel V
# Text: as §1, §2
# [3] = system: breast cancer subpanel; experiment: NCI60 five-dose, subpanel IX; format: cell-based, human; settings: for GI50: Homo sapiens, read-out: MG-MID (GI50); for GI50 / MG-MID (TGI): subpanel IX; for Selectivity index (GI50) / Selectivity index (TGI): full panel MG-MID / subpanel IX
# Text: as §1, §2
# [4] = in vitro; settings: human
# Procedure: (§3) Further perspectives of their mechanisms of action were carried.
# (§4) The preliminary in vitro antitumor investigation of our novel potential anticancer candidates was carried out by NCI, MD, USA (www.dtp.nci.nih.gov). […] Moreover, the safety profile of 4e & 4f at normal cells were evaluated.
# [5] = system: FHC (epithelial colon cell line); experiment: in vitro; settings: human
# Procedure: as §3, §4
# [6] = system: Colo 205 cells; experiment: Cell cycle analysis by flow cytometry; format: cell-based, human; settings: treated at IC50; for % G0–G1 / % G2/M / % S: DNA content
# Procedure: Inhibition of the EGFR^WT/COX-2 pathway has been linked to alterations in cell survival and proliferation, as reported.[22,40]
# Cell Culture Unit, VACSERA, Cairo, Egypt, conducted an apoptosis investigation.
# Results reported as DNA% of each cell cycle phase: (S, G1, G2, M). The following reported procedure was followed; (1) applying compounds 4e and 4f on Colo 205 cell line separately, then the Colo 205 was cultured. (2) The cells were collected in PBS diluted by nanopure water as a single cell suspension (by adding trypsine to dissociate cells). (3) Centrifuge cells by 500×g for 5 min, decant the supernatant. (4) Using PBS wash the cells, gently tapping the tube to resuspend cells. (5) In ice bath fix the cells in 66% cooled ethanol, stored in +4 °C 2 h at least (6) put the sample on bench at room temperature, inverted tube gently to resuspend cells. (7) Centrifuge, discard supernatant, wash and resuspend cells once more time. (8) Gently adding PI solution with RNAase (preventing RNA staining and interfering results), (9) Incubate samples in R.T, dark conditions for 20 min (10) transfer samples into ice, dark conditions. (11) Genteelly tapping to resuspend cells which settled during incubation step. (12) Put sample into flow cytometer and run it. Detect the fluorescence of protium iodide in FL2.[41,42] Additional assessment of the pro-apoptotic effect was performed by using Annexin V-FITC and propidium iodide.
SMILES,GI50 [1] [µM],Selectivity index (GI50) [1],Selectivity index (TGI) [1],MG-MID (TGI) [1] [µM],GI50 [2] [µM],Selectivity index (GI50) [2],Selectivity index (TGI) [2],MG-MID (TGI) [2] [µM],GI50 [3] [µM],Selectivity index (GI50) [3],Selectivity index (TGI) [3],MG-MID (TGI) [3] [µM],IC50 [4] [µM],selectivity ratio [4],IC50 FHC [5] [µM],% G0–G1 [6] [%],% G2/M [6] [%],% S [6] [%],Cell cycle comment [6],Increase of cells at G0–G1 phase vs control [6] [fold]
"N#Cc1c(-c2ccc(F)cc2)nc(SCc2ccc(F)cc2)nc1N1CCNCC1 [4f, 2-((4-Fluorobenzyl)thio)-4-(4-fluorophenyl)-6-(piperazin-1-yl) pyrimidine-5-carbonitrile]",14.3,0.94,0.91,28.98,13.9,0.96,1.00,26.43,11.8,1.14,0.98,26.88,46.3,25.3,28.25,55.01,5.39,39.6,Cell growth arrest@ G1,~1.1
"N#Cc1c(-c2ccc(F)cc2)nc(SCc2ccccc2)nc1N1CCNCC1 [4e, 2-(Benzylthio)-4-(4-fluorophenyl)-6-(piperazin-1-yl) pyrimidine-5-carbonitrile]",12.6,0.85,0.88,26.80,13,0.82,0.93,25.21,9.57,1.11,0.98,23.96,28.2,17,46.34,61.31,2.87,35.82,Cell growth arrest@ G1,~1.2
